Measured values from ChEMBL document CHEMBL1147150, “Design and synthesis of a potent histone deacetylase inhibitor” (J Med Chem, 2007).
pIC50, pKi: −log10 of the molar value. Square brackets hold non-standard residues; d marks the D form. Peptide text beside a SMILES is read from it. * marks the point of attachment. Asu = N[C@@H](CCCCCC(=O)O)C(=O)O; NHOH = ON*

Tests used:
Histone deacetylase 1 = Histone deacetylase 1 (Homo sapiens, UniProt Q13547); test: Inhibition of human HDAC1
Histone deacetylase = test: Inhibition of Histone deacetylase in HeLa cell nuclear extracts by fluorescence-based assay; set-up: species or system Homo sapiens
Histone deacetylase 8 = target: T1, Histone deacetylase 8 (Homo sapiens, UniProt Q9BY41); test: Inhibition of human HDAC8
T1 sequence (Q9BY41 whole entry): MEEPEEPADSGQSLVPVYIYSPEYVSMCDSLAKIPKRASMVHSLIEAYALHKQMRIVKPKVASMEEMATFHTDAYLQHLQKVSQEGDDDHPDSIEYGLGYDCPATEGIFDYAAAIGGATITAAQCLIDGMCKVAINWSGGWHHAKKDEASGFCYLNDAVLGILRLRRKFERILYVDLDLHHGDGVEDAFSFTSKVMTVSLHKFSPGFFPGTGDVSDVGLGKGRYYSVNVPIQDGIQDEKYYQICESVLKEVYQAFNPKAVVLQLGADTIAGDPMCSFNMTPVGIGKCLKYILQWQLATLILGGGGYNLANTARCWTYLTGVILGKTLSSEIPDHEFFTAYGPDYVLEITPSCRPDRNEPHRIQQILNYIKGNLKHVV

Chain of Histone deacetylase 1 (Q13547 whole entry): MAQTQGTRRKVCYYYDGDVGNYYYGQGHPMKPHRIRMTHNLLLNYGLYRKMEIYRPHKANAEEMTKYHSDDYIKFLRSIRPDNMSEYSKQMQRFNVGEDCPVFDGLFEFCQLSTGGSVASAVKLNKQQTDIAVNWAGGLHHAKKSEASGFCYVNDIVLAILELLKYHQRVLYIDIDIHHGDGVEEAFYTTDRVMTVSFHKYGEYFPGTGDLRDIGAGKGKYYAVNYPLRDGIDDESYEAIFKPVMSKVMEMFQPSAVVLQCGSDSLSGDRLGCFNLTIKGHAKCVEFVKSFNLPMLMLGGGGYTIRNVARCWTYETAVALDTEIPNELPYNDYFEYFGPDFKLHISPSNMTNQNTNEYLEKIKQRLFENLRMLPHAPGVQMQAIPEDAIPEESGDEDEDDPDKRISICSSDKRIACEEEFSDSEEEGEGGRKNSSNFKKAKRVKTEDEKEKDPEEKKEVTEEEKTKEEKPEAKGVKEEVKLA

`COC(=O)C(Cc1cccc(C[C@H](NC(C)=O)C(=O)O)c1)NC(=O)[C@@H](N)CCCCCC(=O)NO` (stereo not given in full) was tested. Which pIC50 (Histone deacetylase 1) did it give?
Its pIC50 is 4.40.

And the IC50 (Histone deacetylase)?
Its IC50 is 8100 nM.

Which results are given for `COC(=O)[C@@H]1Cc2cccc(c2)C[C@H](NC(C)=O)C(=O)N[C@@H](CCCCCC(=O)NO)C(=O)N1`?
pIC50 (Histone deacetylase 1): 7.24; pKi (Histone deacetylase 1): 8.38; pIC50 (Histone deacetylase 8): 6.64; pKi (Histone deacetylase 8): 8.27; IC50 (Histone deacetylase): 46 nM; Ki (Histone deacetylase): 13.67 nM

Which results are given for `COC(=O)[C@H](Cc1ccccc1)NC(=O)[C@H](CCCCCC(=O)NO)NC(=O)[C@H](C)NC(C)=O` (Ac-Ala-[Asu](NHOH)-Phe-OMe)?
pIC50 (Histone deacetylase 1): 6.76; IC50 (Histone deacetylase): 167 nM
